US11291712B2, “Bacterial protein compositions and uses thereof” (The United States Government as Represented by the …, priority 2017, dated 2022)
Entries after “also recorded” stand apart in the source; their conditions may differ.

How the values were obtained:
[1] = tested on: A. baumannii strain AB5075 VIR-O and AV-T variants; assay: Antimicrobial killing assays (time-kill); type: cell-based, Acinetobacter baumannii; settings: equal mixture of VIR-O and AV-T, 1 hour, CRAMP 10 μg/mL, lysozyme 10 mg/mL, LL-37 15 μg/mL, H2O2 0.01%
Method: An equal mixture of VIR-O and AV-T variants were grown to early-log phase in 2 mL LB broth, or LB with tetracycline 6 μg/mL for strains with plasmids. A 5 μL aliquot of each culture was mixed together in 250 μL of 0.1× tryptone/yeast extract (1 g tryptone, 0.5 g yeast extract/liter). Cells were mixed by vortexing and serial dilutions were plated on 0.5×LB agar plates to assess the initial CFU's for both VIR-O and AV-T variants. Various antimicrobials were then added at the following final concentrations: CRAMP (10 μg/mL), lysozyme (10 mg/mL), LL-37 (15 μg/mL) and H2O2. (0.01%). Cells were treated for 1 hour and dilutions were plated on 0.5×LB agar plates to enumerate the surviving VIR-O and AV-T variants.

[2] = tested on: A. baumannii strain AB5075 VIR-O and AV-T cells; assay: Sensitivity to disinfectants; type: cell-based, Acinetobacter baumannii; settings: BZT 0.01%, BAK 0.004%, CHG 0.008%; 30 min at room temperature
Method: Overnight standing bacterial cultures at room temperature were sub-cultured in LB broth and grown at 37° C. with shaking to an OD600˜0.15. Nine hundred ninety microliters of culture were then added to tubes containing 10 μL of the appropriated disinfectants, BZT (Sigma-Aldrich), BAK (Sigma-Aldrich) and CHG (Sigma-Aldrich), respectively. Tubes were incubated at room temperature for 30 min. Cultures were then serially diluted and plated for CFU enumerations.

Compound: OO [H2O2, hydrogen peroxide]
- survival of VIR-O (O) cells compared to AV-T (T) cells after treatment with the antimicrobial [1]: resistant
- survival of VIR-O (O) cells compared to AV-T (T) cells after treatment with the antimicrobial ([1]; listed as hydrogen peroxide): VIR-O cells vastly outnumbered AV-T cells

Compound: CC(C)(C)CC(C)(C)c1ccc(OCCOCC[N+](C)(C)Cc2ccccc2)cc1 [benzethonium chloride]
- resistance of VIR-O (O) cells to the disinfectant compared to AV-T (T) cells [2]: more resistant; also recorded: increased resistance

Compound: N=C(NCCCCCCNC(=N)NC(=N)Nc1ccc(Cl)cc1)NC(=N)Nc1ccc(Cl)cc1.O=C(O)[C@H](O)[C@@H](O)[C@H](O)[C@H](O)CO.O=C(O)[C@H](O)[C@@H](O)[C@H](O)[C@H](O)CO [chlorhexidine gluconate]
- resistance of VIR-O (O) cells to the disinfectant compared to AV-T (T) cells [2]: more resistant; also recorded: increased resistance

Compound: CRAMP: murine cationic antimicrobial peptide (ISRLAGLLRKGGEKIGEKLKKIGQKIKNFFQKLVPQPE; UniProt P51437 135-172, looked up)
- survival of VIR-O (O) cells compared to AV-T (T) cells after treatment with the antimicrobial [1]: resistant; also recorded: VIR-O cells vastly outnumbered AV-T cells

Compound: LL-37: human antimicrobial peptide, the human orthologue of CRAMP
- survival of VIR-O (O) cells compared to AV-T (T) cells after treatment with the antimicrobial [1]: VIR-O cells also outnumbered AV-T; also recorded: resistant

Compound: benzalkonium chloride
- resistance of VIR-O (O) cells to the disinfectant compared to AV-T (T) cells [2]: more resistant; also recorded: increased resistance

Compound: lysozyme
- survival of VIR-O (O) cells compared to AV-T (T) cells after treatment with the antimicrobial [1]: resistant; also recorded: VIR-O cells vastly outnumbered AV-T cells
